# Experimental data reported in patent US5912269A, “Butyrate prodrugs derived from lactic acid” (Vertex Pharmaceuticals, Inc., priority 1996, dated 1999).
# Where two headings read alike, the source gives them in different places.
# What was measured:
# [1] = cited from earlier work
# [2] = system: Fetal hemoglobin cells (F cells); test: Fetal hemoglobin cells (% F cells), efficacy study in anemic rhesus monkeys; format: in vivo
# Hemoglobin F = Hemoglobin F level in total hemoglobin (% Hb F) by HPLC, efficacy study in anemic rhesus monkeys; format: in vivo
# Procedure: (§1) The efficacy of compound IIIc administered in conjunction with hydroxyurea was tested on six anemic rhesus monkeys divided into three groups of two each. Each group was studied in two phases, as shown below. Fetal hemoglobin cells (F cells), Hemoglobin F level in total Hemoglobin (% Hb F) and % γ globin chain levels were monitored before and after each of the two phases. % F cells were measured according to the protocol described in Betke et al, Blut., 4, pp. 241-9 (1958). % Hb F and % γ globin chain synthesis were measured using High Performance Liquid Chromatography (HPLC) according to the protocol described in Huisman, J. Chromagtogr., 418, pp. 277 (1987).
# γ globin chain = test: % γ globin chain levels by HPLC, efficacy study in anemic rhesus monkeys; format: in vivo
# Procedure: as §1
# [3] = Triglyceride and ALT levels during efficacy study in anemic rhesus monkeys; details: all three groups, prior to or during the two phases
# [4] = rhesus monkey, in vivo
# [5] = system: sickle cell anemia patients; details: cited from earlier work
# [6] = Groups II and III (compound IIIc)
# [7] = Group I (hydroxyurea in Phase I, hydroxyurea + compound IIIc in Phase II)
structure (smiles),measurement,setting,value
CCCC(=O)OCOC(=O)C(C)(C)C [AN-9],formaldehyde-producing metabolites in vivo,[1],elicit metabolites that may produce formaldehyde in vivo
CCCC(=O)O[C@@H](C)C(=O)OCC [Compound IIIc],% F cell count at the end of Phase II,"[2]; Animal 2, group II, compound IIIc 1 g/kg/TID, 5 weeks, 8-10% before Phase I",22%
same,% F cell count at the end of Phase I,"[2]; Animal 2, group II, compound IIIc 1 g/kg/day, 5 weeks, 8-10% before Phase I",15%
same,increase in % F cells,[2]; [6],small but significant increase
same,HbF,Hemoglobin F; [6],no measurable change
same,γ-globin chain levels,γ globin chain; [6],no measurable change
same,levels of ALT,[3],no detectable difference
same,levels of the triglycerides,[3],no detectable difference
"NC(=O)NO [Hydroxyurea, hydroxyurea]",% F cell count at the end of Phase I,"[2]; Animal 1, group I, hydroxyurea 50 mg/kg/day, 5 weeks, 8-10% before Phase I",25%
same,% Hb F level,Hemoglobin F; [7],measurable increase
same,% γ-globin chain levels,γ globin chain; [7],measurable increase
same,levels of ALT,[4],no detectable difference
same,levels of the triglycerides,[4],no detectable difference
same,fetal hemoglobin production and sickling crisis,[5],stimulates fetal hemoglobin production and reduces sickling crisis
